Reference: patent US6348614B1 (priority 1996, dated 2002)
Where two headings read alike, the source gives them in different places.

How the values were obtained:
[1] = test system: Erysiphe graminis tritici; experiment: Powdery mildew in wheat, additional examples (Table 6); format: in vivo; conditions: 500 ppm, 7 days after inoculation
Method: Wheat plants (cv.Shafir) were raised from seed in the greenhouse, 30 plants per 0.2 liter pot. When the first leaf was fully developed plants were sprayed with the test solutions and placed in a 20° C. growth cabinet. Two days after spraying plants were dusted with conidia of E. graminis tritict so that about 100 spores were settled on 1 cm^2 of leaf area (both surfaces). […] Control efficacy was calculated relative to number of colonies developed on the control-inoculated untreated plants.

[2] = test system: Pseudoperonospora cubensis; experiment: Downy mildew in melon (Table 7); conditions: 500 ppm, 7 days after inoculation
Method: Cucumber plants (cv,Dlila) and melon plants (cv.Ein Dor) were raised from seeds in 0.2 liter pots in the greenhouse. At 3 weeks after sowing when had 3 true leaves they were inoculated with sporangial suspension (1000 sporangia/ml) of P.cubensis (resistant to metalaxyl) and placed in 100% relative humidity in the dark for 20 hr. They were then place in a 20° C. growth cabinet for 7 days and assessed for disease development. Percentage leaf area covered with disease symptoms was evaluated and control efficacy was calculated relative to control inoculated plants.

Plasmopara viticola = experiment: Downy mildew in grapes (Table 9); format: in vivo; conditions: 500 ppm, 10 days after inoculation
Method: Two days after spraying plants were inoculated with sporangial suspension of P.viticola ([…]) onto their lower leaf surface and placed in 100% relative humidity for 20 hr. The plants were then placed in a growth cabinets 20° C. for 10 days. Disease development was assessed according to the abaxial leaf surfaces area covered with fungal sporulation.

Phytophthora infestans [3] = format: in vivo
Phytophthora infestans [4] = format: in vivo; remark: listed apart in the source
[5] = potato, 2000 ppm, 3 days after inoculation
[6] = potato, 2000 ppm, 4 days after inoculation
[7] = potato, 2000 ppm, 6 days after inoculation
[8] = potato, 2000 ppm, 8 days after inoculation

Compound	Control efficacy (%) 7d [1]	Control efficacy % 7 days [2]	Control efficacy % 10d (Plasmopara viticola)	further results
CCCCCCCOC(=O)CC(C)NC(=O)c1ccc(OC)cc1 (centres unmarked) [compound 12, D,L N-4-methoxybenzoyl-3-aminobutyric acid heptyl ester]	85%	100%		
CCCOC(=O)CC(C)NS(=O)(=O)c1ccccc1 (centres unmarked) [compound 41, D,L N— benzenesulfonyl-3-aminobutyric acid propyl ester]	77%			
CCCCC(C)OC(=O)CC(C)NC(=O)c1ccc(Cl)cc1 (centres unmarked) [compound 18, D,L N-4-cholrobenzoyl-3-aminobutyric acid 1-methylpentyl ester]		87%	91%	
CCCCCCCOC(=O)CC(C)NC(=O)c1ccc(C(C)(C)C)cc1 (centres unmarked) [compound 15, D,L N-4-tertbutylbenzoyl-3-aminobutyric acid heptyl ester]	74%	97%	97%	
C=CCOC(=O)CC(C)NC(=O)c1ccccc1 (centres unmarked) [compound 42, N-benzoyl-3-aminobutyric acid-2 propenyl ester]	77%			
CCCCCCCOC(=O)CC(C)NC(=O)c1cc(C)cc(C)c1 (centres unmarked) [compound 13, D,L N-3,5-dimethylbezoyl-3-aminobutyric acid heptyl ester]	72%			
CC(CC(=O)Nc1ccccc1)NS(=O)(=O)c1ccccc1 (racemic) [Example 2, D,L-N-benzensulfonyl-3-aminobutyranilide]				Control Efficacy % (Phytophthora infestans [3]; Potato, 14.8.96, 2000 ppm): 74%; Control Efficacy % (Phytophthora infestans [3]; Potato, 17.7.096, 500 ppm): 45%; Control Efficacy % (Phytophthora infestans [3]; Potato, 17.7.096, 2000 ppm): 81%; Control Efficacy % (Phytophthora infestans [3]; Potato, 26.7.96, 500 ppm): 42%; Control Efficacy % (Phytophthora infestans [3]; Potato, 26.7.96, 2000 ppm): 68%; Control Efficacy % (Phytophthora infestans [4]; Tomato, 12.7.96, 500 ppm): 85%; Control Efficacy % (Phytophthora infestans [4]; Tomato, 12.7.96, 2000 ppm): 85%; Control Efficacy % (Phytophthora infestans [4]; Tomato, 14.8/96, 2000 ppm): 83%
COc1ccc(C(=O)NC(C)CC(=O)OCCCl)cc1 (centres unmarked) [compound 28, D,L N-4-methoxybenzoyl-3-aminobutyric acid 2-chloroethyl ester]			91%	
CNc1ccccc1C(=O)NC(C)CC(=O)OC (centres unmarked) [compound 47, D,L N-2-methylaminobenzoyl-3-aminobutyric acid methyl ester.]	81%			
CCCC(C)OC(=O)CC(C)NS(=O)(=O)c1ccccc1 (centres unmarked) [Example 9, N-benzenesulfonyl-3-aminobutyric acid 1-methyl-1-butyl ester]				Control Efficacy % (Phytophthora infestans [3]; [5]): 99%; Control Efficacy % (Phytophthora infestans [3]; [6]): 97%; Control Efficacy % (Phytophthora infestans [3]; [7]): 82%; Control Efficacy % (Phytophthora infestans [3]; [8]): 62%
CCCCCC(C)OC(=O)CC(C)NC(=O)c1ccc(C)cc1 (centres unmarked) [compound 43, D,L N-4-methylbenzoyl-3-aminobutyric acid 1-methylhexyl ester]	75%			
CCCCC(C)OC(=O)CC(C)NC(=O)c1ccc(C)cc1 (centres unmarked) [compound 46, D,L N-4-methylbezoyl-3-aminobutyric acid 1-methylpentyl ester]	69%			
CCCCC(C)OC(=O)CC(C)NS(=O)(=O)c1ccc(C)cc1 (centres unmarked) [compound 16, D,L N-4-methylbenzenesulfonyl-3-aminobutyric acid i-methylpentyl ester]	83%		100%	
CCCCCCCOC(=O)CC(C)NC(=O)c1c(Cl)cccc1Cl (centres unmarked) [compound 24, D,L N-2,6-dichlorobenzoyl-3-aminobutyric acid heptyl ester]			100%	
Cc1cc(C)cc(C(=O)NC(C)CC(=O)OCCCl)c1 (centres unmarked) [compound 27, D,L N-3,5-dimethylbezoyl-3-aminobutyric acid 2-chloroethyl ester]		73%	97%	
CC(CC(=O)Oc1cc(Cl)cc(Cl)c1)NS(=O)(=O)c1ccccc1 (centres unmarked) [compound 53, D,L N-benzensulfonyl-3-aminobutyric acid 3,5-dichlorophenyl ester]	100%			
CCCCCCCOC(=O)CC(C)NS(=O)(=O)c1ccc(C)cc1 (centres unmarked) [compound 34, D,L N-4-methylbenzenesulfonyl-3-aminobutyric acid heptyl ester]		70%		
CC(CC(=O)OCCCl)NC(=O)c1ccccc1 (racemic) [Example 11, DL-N-benzoyl-3-aminobutyric acid 2-chloroethyl ester]				Control Efficacy % (Phytophthora infestans [3]; [5]): 95%; Control Efficacy % (Phytophthora infestans [3]; [6]): 92%; Control Efficacy % (Phytophthora infestans [3]; [7]): 82%; Control Efficacy % (Phytophthora infestans [3]; [8]): 70%
CCCCCCCOC(=O)CC(C)NC(=O)c1ccc(Cl)cc1 (centres unmarked) [compound 30, D,L N-4-cholrobenzoyl-3-aminobutyric acid heptyl ester]			91%	
Cc1ccc(C(=O)NC(C)CC(=O)OCCCc2ccccc2)cc1 (centres unmarked) [compound 26, D,L N-4-methylbenzoyl-3-aminobutyric acid 3-phenylpropyl ester]			99%	

Compound	Control efficacy (%) 7d [1]	Control efficacy % 7 days [2]	Control efficacy % 10d (Plasmopara viticola)	further results
CCCCC(C)OC(=O)CC(C)NS(=O)(=O)c1ccc(Cl)cc1 (centres unmarked) [compound 50, D,L N-4-chlorobenzensulfonyl-3-aminobutyric acid 1-methylpentyl ester]	92%			
CCCCCCCOC(=O)CC(C)NC(=O)c1ccccc1C (centres unmarked) [compound 32, D,L N-2-methylbezoyl-3-aminobutyric acid heptyl ester]	83%	77%		
CCCCCCCCOC(=O)CC(C)NS(=O)(=O)c1ccccc1 (racemic) [Example 7, DL-N-benzenesulfonyl-3-aminobutyric acid n-octyl ester]				Control Efficacy % (Phytophthora infestans [3]; [5]): 100%; Control Efficacy % (Phytophthora infestans [3]; [6]): 100%; Control Efficacy % (Phytophthora infestans [3]; [7]): 82%; Control Efficacy % (Phytophthora infestans [3]; [8]): 77%
CCCCCCCCCC(C)OC(=O)CC(C)NC(=O)c1ccc(C)cc1 (centres unmarked) [compound 44, D,L N-4-methylbenzoyl-3-aminobutyric acid 1-methyldecanyl ester]	74%			
N-β-methylbenzoyl-1-aminobutyric acid-1-methyl-1-pentyl ester [Example 10]				Control Efficacy % (Phytophthora infestans [3]; [5]): 100%; Control Efficacy % (Phytophthora infestans [3]; [6]): 100%; Control Efficacy % (Phytophthora infestans [3]; [7]): 97%; Control Efficacy % (Phytophthora infestans [3]; [8]): 87%
CC(CC(=O)OCCC(Cl)(Cl)Cl)NS(=O)(=O)c1ccccc1 (centres unmarked) [compound 19, D,L N-benzenesulfonyl-3-aminobutyric acid 2-(trichloromethyl)ethyl ester]		83%	94%	
COCC(C)OC(=O)CC(C)NS(=O)(=O)c1ccccc1 (centres unmarked) [compound 31, D,L N-benzenesulfonyl-3-aminobutyric acid 1-methyl-2-methoxyethyl ester]			82%	
CCC(C)OC(=O)CC(C)NS(=O)(=O)c1ccccc1 (centres unmarked) [Example 8, N-benzenesulfonyl-3-aminobutyric acid-sec butyl ester]				Control Efficacy % (Phytophthora infestans [3]; [5]): 100%; Control Efficacy % (Phytophthora infestans [3]; [6]): 92%; Control Efficacy % (Phytophthora infestans [3]; [7]): 87%; Control Efficacy % (Phytophthora infestans [3]; [8]): 50%
CC(CC(=O)OCCCc1ccccc1)NS(=O)(=O)c1ccccc1 (centres unmarked) [compound 17, D,L N-benzenesulfonyl-3-aminobutyric acid 3-phenylpropyl ester]		87%	97%	
CCCCCCCOC(=O)CC(C)NC(=O)c1c(F)cccc1F (centres unmarked) [compound 14, D,L N-2,6-difluorobenzoyl-3-aminobutyric acid heptyl ester]			100%	
CCC(C)OC(=O)CC(C)NS(=O)(=O)c1ccc(C)cc1 (centres unmarked) [compound 20, D,L N-4-methylbenzenesulfonyl-3-aminobutyric 1-methylpropyll ester]			100%	
CC(CC(=O)OCCCc1ccccc1)NS(=O)(=O)c1ccccc1 (centres unmarked) [compound 51, D,L N-benzensulphonyl-3-aminobutyric acid 3-phenylpropyl ester]		87%	97%	
CCCCCCCOC(=O)CC(C)NC(=O)c1cccc(C)c1 (centres unmarked) [compound 22, D,L N-3-methylbezoyl-3-aminobutyric acid heptyl ester]		83%		
CCCCC(C)OC(=O)CC(C)NC(=O)c1cc(C)cc(C)c1 (centres unmarked) [compound 23, D,L N-3,5-dimethylbezoyl-3-aminobutyric acid 1-methylpentyl ester]		73%	100%	
CC(CC(=O)OCCC(Cl)(Cl)Cl)NC(=O)c1ccccc1 (centres unmarked) [compound 29, D,L N-benzoyl-3-aminobutyric acid 2-(trichloromethyl)ethyl ester]		70%	91%	
CCCCCCCOC(=O)CC(C)NC(=O)c1ccc(C)c(C)c1 (centres unmarked) [compound 45, D,L N-3,4-dimethylbezoyl-3-aminobutyric acid heptyl ester]	71%			
CCCCCCCCOC(=O)CC(C)NC(=O)c1ccc(C)c(C)c1 (centres unmarked) [compound 54, D,L N-3,4-dimethylbenzoyl-3-aminobutyric acid octyl ester]	69%			
CCCC(C)COC(=O)CC(C)NC(=O)c1c(Cl)cccc1Cl (centres unmarked) [compound 25, D,L N-2,6-dichlorobenzoyl-3-aminobutyric acid 2-methylpentyl ester]		80%	100%	
Cc1ccc(S(=O)(=O)NC(C)CC(=O)OCCBr)cc1 (centres unmarked) [compound 33, D,L N-4-methylbenzenesulfonyl-3-aminobutyric acid 2-bromoethyl ester]		75%		
